The values that follow come from ChEMBL document CHEMBL1201862, “PubChem BioAssay data set” (2004).

The source made the active and inactive calls. Some results are limits rather than exact numbers.

Test [1] addresses T1, Histone-lysine N-methyltransferase NSD2 (Homo sapiens, UniProt O96028).
T1 sequence (O96028 whole entry): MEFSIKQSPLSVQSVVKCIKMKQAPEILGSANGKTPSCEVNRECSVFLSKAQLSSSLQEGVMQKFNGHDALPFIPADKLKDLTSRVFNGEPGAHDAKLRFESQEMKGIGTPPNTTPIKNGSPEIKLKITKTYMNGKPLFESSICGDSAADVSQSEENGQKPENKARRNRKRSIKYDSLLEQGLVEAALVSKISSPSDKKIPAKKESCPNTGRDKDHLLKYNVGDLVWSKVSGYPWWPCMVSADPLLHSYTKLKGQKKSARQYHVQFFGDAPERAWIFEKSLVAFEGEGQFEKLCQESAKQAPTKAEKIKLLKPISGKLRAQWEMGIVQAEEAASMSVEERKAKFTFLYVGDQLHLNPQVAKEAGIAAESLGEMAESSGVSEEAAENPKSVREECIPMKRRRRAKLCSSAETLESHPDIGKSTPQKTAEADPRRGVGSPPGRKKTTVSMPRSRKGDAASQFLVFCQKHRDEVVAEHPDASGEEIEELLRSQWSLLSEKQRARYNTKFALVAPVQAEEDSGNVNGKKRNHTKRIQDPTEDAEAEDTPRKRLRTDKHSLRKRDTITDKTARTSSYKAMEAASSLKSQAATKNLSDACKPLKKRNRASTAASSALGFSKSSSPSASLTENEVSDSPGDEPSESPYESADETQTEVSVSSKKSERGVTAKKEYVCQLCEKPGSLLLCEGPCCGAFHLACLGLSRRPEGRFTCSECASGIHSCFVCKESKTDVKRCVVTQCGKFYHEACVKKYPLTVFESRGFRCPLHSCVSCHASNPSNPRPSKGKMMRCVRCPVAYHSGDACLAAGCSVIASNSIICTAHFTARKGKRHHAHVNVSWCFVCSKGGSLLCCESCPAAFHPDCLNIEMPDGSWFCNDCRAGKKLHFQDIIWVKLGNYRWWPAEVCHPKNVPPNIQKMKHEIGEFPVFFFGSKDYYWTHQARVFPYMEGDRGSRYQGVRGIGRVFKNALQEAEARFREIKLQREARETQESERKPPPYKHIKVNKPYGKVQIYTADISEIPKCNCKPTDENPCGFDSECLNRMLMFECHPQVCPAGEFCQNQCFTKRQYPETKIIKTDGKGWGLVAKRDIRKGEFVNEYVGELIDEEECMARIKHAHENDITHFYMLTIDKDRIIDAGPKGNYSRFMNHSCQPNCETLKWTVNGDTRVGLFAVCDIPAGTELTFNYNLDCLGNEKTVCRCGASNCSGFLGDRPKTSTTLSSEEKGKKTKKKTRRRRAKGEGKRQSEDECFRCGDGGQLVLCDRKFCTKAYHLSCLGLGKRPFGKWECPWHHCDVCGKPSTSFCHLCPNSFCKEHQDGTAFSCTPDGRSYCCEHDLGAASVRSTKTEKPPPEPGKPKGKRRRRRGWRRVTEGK
In kind it is biochemical.

A further test has as its target T2, Protein RecA (Mycobacterium tuberculosis, UniProt P9WHJ3).
T2 sequence (P9WHJ3 whole entry): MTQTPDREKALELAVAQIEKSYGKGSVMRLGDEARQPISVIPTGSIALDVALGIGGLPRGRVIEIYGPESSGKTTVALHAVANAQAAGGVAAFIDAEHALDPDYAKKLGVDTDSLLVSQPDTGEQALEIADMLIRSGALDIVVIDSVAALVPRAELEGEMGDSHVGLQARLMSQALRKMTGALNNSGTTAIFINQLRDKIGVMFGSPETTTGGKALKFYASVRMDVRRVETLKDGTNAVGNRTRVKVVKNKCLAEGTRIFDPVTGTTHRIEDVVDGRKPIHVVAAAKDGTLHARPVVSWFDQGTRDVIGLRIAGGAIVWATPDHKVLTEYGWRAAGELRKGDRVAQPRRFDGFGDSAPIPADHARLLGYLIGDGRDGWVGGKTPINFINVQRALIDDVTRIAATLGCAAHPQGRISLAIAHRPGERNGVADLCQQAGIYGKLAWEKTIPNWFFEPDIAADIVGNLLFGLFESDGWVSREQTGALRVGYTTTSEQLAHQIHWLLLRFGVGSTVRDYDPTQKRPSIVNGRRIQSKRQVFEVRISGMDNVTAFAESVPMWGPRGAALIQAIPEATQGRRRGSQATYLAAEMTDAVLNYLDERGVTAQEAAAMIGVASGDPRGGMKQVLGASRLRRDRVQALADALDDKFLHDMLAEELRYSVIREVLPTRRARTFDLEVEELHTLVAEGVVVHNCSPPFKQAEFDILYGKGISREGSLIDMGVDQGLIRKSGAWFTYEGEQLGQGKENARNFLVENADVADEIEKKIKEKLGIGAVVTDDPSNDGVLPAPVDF
Nature of the test: Fluorescence Cell-Free Homogeneous Dose Retest to Identify Inhibitors of RecA-Intein Splicing Activity. [Related pubchem assays (depositor defined):AID2097, AID2223, AID489010, AID492950]. Format: functional.

In another test the target is T3, Caspase-3 (Homo sapiens, UniProt P42574).
T3 sequence (P42574 whole entry): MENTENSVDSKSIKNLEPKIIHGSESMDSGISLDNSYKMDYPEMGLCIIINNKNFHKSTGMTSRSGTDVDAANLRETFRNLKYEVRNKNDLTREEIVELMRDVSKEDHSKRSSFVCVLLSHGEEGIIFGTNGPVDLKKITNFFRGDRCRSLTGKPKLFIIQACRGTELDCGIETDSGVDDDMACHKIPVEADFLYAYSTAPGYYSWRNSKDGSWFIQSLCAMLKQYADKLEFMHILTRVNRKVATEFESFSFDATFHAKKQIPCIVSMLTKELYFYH
In words: SAR Analysis of small molecule inhibitors of Sentrin-specific proteases (SENPs) using a Caspase-3 Selectivity assay. [Related pubchem assays (depositor defined):AID2540, AID2599, AID434973, AID489001]. Format: functional.

A further test addresses SUMO-activating enzyme (Homo sapiens, UniProt Q9UBT2). In words: blockers of SAE1/SAE2–UBC9 SUMO transfer – biochemical, HTRF, uHTS, primary screen (AID 2006). Format: protein-complex assay. A general note: Time-resolved FRET reads energy transfer from a long-lived donor to a nearby acceptor.
For another test, the target named is Activin receptor type-1 (Homo sapiens, UniProt Q04771). Nature of the test: Navigating the Kinome. Panel member name: ACVR1. Format: functional.
Test [2] concerns the target Tyrosine-protein kinase Fyn (Homo sapiens, UniProt P06241). Format: functional.
The target of test [3] is Insulin-like growth factor 1 receptor (Homo sapiens, UniProt P08069). Nature of the test: Navigating the Kinome. Panel member name: IGF1R. In kind it is functional.
Test [4] addresses Serine/threonine-protein kinase PAK 4 (Homo sapiens, UniProt O96013). In kind it is functional.
Test [5] addresses Platelet-derived growth factor receptor beta (Homo sapiens, UniProt P09619). In kind it is functional.

SUMO-activating enzyme, sequence (Q9UBE0 whole entry): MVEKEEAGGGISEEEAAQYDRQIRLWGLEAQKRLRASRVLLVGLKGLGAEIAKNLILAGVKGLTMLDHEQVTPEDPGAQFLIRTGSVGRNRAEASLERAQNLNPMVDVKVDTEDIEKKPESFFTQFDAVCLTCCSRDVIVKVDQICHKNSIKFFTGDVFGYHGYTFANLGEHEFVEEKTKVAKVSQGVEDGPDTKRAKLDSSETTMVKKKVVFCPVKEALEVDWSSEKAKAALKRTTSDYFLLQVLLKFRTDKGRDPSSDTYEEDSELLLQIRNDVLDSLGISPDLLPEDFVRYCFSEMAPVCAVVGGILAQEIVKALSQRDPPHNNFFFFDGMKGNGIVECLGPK
SUMO-activating enzyme, sequence (Q9UBT2 whole entry): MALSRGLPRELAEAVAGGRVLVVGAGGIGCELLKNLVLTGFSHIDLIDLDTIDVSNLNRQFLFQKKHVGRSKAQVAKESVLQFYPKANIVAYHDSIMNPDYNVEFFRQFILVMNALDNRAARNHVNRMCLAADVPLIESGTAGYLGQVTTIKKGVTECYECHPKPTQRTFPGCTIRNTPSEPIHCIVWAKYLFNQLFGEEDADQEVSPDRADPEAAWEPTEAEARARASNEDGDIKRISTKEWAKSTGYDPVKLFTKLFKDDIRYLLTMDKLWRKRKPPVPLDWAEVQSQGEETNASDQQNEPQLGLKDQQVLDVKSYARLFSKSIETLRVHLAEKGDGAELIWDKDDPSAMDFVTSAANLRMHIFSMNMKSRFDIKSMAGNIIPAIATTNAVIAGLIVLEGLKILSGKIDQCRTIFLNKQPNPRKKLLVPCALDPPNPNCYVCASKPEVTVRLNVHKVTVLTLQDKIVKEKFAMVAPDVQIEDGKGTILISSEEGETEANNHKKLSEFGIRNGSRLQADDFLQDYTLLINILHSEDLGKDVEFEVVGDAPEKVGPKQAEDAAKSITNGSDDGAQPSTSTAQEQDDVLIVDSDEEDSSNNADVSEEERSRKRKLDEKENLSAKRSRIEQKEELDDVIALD
Insulin-like growth factor 1 receptor, sequence (P08069 31-736 limits assumed): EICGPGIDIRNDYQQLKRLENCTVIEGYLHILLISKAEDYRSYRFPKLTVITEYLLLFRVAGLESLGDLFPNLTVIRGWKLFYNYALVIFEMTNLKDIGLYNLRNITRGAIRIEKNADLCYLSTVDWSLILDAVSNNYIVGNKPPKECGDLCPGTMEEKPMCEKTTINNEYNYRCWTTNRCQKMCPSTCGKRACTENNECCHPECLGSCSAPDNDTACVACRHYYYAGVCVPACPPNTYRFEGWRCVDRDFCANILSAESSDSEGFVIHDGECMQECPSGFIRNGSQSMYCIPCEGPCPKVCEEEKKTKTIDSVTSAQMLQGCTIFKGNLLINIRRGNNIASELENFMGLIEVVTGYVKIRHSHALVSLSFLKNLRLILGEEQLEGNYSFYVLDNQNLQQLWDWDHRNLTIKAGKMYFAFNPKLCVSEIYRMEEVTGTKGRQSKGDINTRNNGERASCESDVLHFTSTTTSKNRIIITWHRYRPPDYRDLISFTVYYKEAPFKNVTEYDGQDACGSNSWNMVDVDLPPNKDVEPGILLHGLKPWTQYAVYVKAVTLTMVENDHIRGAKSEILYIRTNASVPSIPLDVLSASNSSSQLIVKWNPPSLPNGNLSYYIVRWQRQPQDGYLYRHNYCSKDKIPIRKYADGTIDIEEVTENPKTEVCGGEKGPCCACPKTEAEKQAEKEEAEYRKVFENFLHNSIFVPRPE
Insulin-like growth factor 1 receptor, sequence (P08069 741-1367 limits assumed): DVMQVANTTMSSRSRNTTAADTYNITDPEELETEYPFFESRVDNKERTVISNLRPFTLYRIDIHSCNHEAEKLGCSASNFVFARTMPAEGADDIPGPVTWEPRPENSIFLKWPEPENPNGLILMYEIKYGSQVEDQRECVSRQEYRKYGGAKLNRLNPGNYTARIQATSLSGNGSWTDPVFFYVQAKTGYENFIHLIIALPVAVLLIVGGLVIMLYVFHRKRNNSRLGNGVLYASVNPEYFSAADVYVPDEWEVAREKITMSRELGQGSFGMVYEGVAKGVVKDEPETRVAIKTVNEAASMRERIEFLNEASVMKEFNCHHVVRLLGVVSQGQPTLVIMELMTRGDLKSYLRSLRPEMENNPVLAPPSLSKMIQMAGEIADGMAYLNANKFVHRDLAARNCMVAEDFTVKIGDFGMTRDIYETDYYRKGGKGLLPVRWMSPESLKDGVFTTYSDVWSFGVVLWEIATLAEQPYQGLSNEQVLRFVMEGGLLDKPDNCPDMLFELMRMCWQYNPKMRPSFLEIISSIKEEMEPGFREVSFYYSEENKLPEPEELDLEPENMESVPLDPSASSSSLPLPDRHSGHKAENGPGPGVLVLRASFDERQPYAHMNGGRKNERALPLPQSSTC
Platelet-derived growth factor receptor beta, sequence (P09619 whole entry): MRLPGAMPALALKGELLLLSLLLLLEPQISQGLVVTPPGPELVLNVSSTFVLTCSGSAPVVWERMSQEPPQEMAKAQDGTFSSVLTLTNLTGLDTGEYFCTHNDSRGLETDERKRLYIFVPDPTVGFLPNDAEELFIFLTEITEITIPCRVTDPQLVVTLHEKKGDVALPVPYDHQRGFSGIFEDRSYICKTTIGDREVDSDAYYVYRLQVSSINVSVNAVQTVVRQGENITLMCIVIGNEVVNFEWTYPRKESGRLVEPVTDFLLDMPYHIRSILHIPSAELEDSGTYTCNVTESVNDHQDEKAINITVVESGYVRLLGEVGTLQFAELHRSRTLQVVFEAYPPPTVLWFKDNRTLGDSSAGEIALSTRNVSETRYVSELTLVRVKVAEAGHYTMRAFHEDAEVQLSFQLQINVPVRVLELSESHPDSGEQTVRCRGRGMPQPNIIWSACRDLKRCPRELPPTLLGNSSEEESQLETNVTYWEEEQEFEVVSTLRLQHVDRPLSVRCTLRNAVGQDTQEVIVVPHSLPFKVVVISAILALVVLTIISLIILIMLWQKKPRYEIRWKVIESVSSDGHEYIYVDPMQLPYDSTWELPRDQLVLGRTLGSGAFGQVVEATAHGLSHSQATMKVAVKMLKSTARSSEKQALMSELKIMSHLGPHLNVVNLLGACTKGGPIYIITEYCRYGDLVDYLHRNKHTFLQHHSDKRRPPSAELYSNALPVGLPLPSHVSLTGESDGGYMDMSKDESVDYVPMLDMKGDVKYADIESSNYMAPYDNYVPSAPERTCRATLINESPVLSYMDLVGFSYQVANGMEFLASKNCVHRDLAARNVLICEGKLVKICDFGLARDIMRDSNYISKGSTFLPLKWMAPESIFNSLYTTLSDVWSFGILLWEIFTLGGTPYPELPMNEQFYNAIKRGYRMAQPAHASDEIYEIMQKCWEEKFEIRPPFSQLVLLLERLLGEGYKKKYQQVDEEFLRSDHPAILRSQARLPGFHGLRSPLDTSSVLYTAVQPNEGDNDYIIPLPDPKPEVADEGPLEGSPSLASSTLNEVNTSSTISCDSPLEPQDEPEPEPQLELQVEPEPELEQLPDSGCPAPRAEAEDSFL
Serine/threonine-protein kinase PAK 4, sequence (O96013 whole entry): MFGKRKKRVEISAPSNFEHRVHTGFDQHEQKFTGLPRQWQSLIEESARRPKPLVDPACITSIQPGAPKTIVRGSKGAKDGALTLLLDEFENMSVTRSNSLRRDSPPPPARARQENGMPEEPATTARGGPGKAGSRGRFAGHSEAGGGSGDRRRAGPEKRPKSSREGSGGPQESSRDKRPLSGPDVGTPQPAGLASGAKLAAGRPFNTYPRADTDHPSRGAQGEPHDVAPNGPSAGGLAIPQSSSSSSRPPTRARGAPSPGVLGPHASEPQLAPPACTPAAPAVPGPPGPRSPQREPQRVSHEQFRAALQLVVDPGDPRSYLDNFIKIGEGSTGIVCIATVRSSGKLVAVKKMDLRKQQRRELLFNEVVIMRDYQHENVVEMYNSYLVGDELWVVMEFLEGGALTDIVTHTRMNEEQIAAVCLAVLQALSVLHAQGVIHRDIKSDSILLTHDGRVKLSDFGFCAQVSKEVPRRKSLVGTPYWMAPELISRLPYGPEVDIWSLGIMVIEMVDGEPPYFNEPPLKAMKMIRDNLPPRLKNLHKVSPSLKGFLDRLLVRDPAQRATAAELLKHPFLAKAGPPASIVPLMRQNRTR
Activin receptor type-1, sequence (Q04771 whole entry): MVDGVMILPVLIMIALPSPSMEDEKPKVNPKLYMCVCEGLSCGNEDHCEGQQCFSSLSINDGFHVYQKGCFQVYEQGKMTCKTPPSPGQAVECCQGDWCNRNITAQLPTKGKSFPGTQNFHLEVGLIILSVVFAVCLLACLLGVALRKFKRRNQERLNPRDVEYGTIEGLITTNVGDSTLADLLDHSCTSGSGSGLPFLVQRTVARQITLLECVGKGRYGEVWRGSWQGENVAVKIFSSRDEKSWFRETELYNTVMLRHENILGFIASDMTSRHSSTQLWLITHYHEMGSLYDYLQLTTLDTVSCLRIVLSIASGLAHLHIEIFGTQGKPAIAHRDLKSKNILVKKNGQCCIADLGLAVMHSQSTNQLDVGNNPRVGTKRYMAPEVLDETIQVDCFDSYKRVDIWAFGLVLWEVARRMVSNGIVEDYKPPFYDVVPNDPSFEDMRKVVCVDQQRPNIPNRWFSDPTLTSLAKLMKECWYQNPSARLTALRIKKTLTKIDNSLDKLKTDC

Regarding `CCN(CC)CCOc1ccc2c(c1)C(=NNC(=O)c1ccccn1)c1cc(OCCN(CC)CC)ccc1-2`, the AC50 (usually the concentration giving half of the maximal activity seen) in test [1] is 10.3 µM (active).

As to `O=C(NC1=C(Nc2ccc(F)cc2)C(=O)c2ccccc2C1=O)c1ccc(Cl)cc1`, at Protein RecA, the half-maximal effective concentration (EC50) (usually the concentration that produces a half-maximal response) was 25.9 µM (inconclusive).

On to `COc1cc2cc(NC(C)=O)cc(NCc3ccccc3)c2cc1OC`, for which the IC50 – broadly, the concentration that gives 50% inhibition – on Caspase-3 was > 99 µM (inactive).

For the compound `Oc1nc(Nc2ccc(F)cc2)cc2ccccc12`, the IC50 at SUMO-activating enzyme was 3.38 µM (active). Further, the EC50 at Protein RecA is 1.21 µM (active).

With `CN(C)c1cc(N/N=C\c2ccccc2)nc(N(C)C)n1`, the figures for the IC50 at Caspase-3 and at SUMO-activating enzyme were 79.3 µM (active) and 15.5 µM (active), respectively. Further, in test [1], the concentration at half-maximal activity (AC50) was 4.93 µM (active).

Consider `O=C1Nc2cc(-c3ccc(O)cc3)ccc2C1=Cc1ccc[nH]1`, for which the Ki (in general, a measure of affinity in units of concentration, obtained from inhibition or displacement) on Activin receptor type-1 is 3.16 µM (active); in [2], > 6.31 µM (inactive); in test [3], > 2.51 µM (inactive); in test [4] it was > 5.01 µM (inactive).

As for `NC(COc1cncc(-c2ccc3c(c2)C(=Cc2ccc[nH]2)C(=O)N3)c1)Cc1ccccc1` (stereo not drawn), the Ki at Activin receptor type-1 was 0.794 µM (active); in [5], 0.00316 µM (active); in test [2], 0.398 µM (active); in [3], 1 µM (active); in [4], 0.0316 µM (active).

Take `O=C1Cc2cc(-c3ccccc3)cnc2N1`: the Ki in test [5] was 50.1 µM (active).
